Legend:
[1] = system: NCI-H460; test: Antiproliferative activity against human NCI-H460 cells in culture medium with 10% lipid-reduced serum after 4 days in presence of palmitate by ATP-Glo assay; type: functional, cell-based; conditions: NCI-H460, 96 h
[2] = system: MV4-11; test: Antiproliferative activity against human MV4-11 cells in culture medium with 10% lipid-reduced serum after 4 days in presence of palmitate by ATP-Glo assay; type: functional, cell-based; conditions: MV4-11, 96 h
[3] = system: PC-3M; test: Antiproliferative activity against human PC3M cells in culture medium with 10% lipid-reduced serum after 4 days by ATP-Glo assay; type: functional, cell-based; conditions: 96 h
[4] = system: U-266; test: Antiproliferative activity against human U266 cells in culture medium with 10% lipid-reduced serum after 4 days in presence of palmitate by ATP-Glo assay; type: functional, cell-based; conditions: U-266, 96 h
[5] = system: LNCaP; test: Antiproliferative activity against human LNCAP cells in culture medium with 10% lipid-reduced serum after 4 days by ATP-Glo assay; type: functional, cell-based; conditions: 96 h
[6] = biological target: Cytochrome P450 2C19 (Homo sapiens, UniProt P33261); test: Inhibition of human CYP2C19; type: ADME
Sequence of Cytochrome P450 2C19 (P33261 whole entry): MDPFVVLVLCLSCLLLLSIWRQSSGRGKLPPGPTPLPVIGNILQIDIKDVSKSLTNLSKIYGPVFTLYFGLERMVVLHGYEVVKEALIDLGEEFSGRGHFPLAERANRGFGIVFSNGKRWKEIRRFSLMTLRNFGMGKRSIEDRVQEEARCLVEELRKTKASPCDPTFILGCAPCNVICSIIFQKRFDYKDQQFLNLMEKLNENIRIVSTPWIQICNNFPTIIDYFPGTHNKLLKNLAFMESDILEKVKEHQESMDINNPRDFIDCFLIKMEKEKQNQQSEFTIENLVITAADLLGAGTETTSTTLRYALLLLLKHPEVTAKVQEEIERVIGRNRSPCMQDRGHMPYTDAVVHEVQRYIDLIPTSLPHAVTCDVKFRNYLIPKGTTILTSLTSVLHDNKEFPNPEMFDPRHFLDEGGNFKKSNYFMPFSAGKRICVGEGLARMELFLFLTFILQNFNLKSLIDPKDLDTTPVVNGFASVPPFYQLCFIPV

[7] = system: HT-29; test: Antiproliferative activity against human HT-29 cells in culture medium with 10% lipid-reduced serum after 4 days by ATP-Glo assay; type: functional, cell-based; conditions: HT-29, 96 h
[8] = Antiproliferative activity against human MM1R cells in culture medium with 10% lipid-reduced serum after 4 days in presence of palmitate by ATP-Glo assay; type: functional, cell-based; conditions: MM.1R, 96 h
[9] = Stability in mouse plasma; type: ADME, cell-free
[10] = system: A2780; test: Antiproliferative activity against human A2780 cells in culture medium with 10% lipid-reduced serum after 4 days in presence of palmitate by MTT assay; type: functional, cell-based; conditions: A2780, 96 h
[11] = Tmax in mouse at 10 mg/kg, po; type: ADME, organism-based; conditions: in vivo
[12] = biological target: Cytochrome P450 2D6 (Homo sapiens, UniProt P10635); test: Inhibition of human CYP2D6; type: ADME
Sequence of Cytochrome P450 2D6 (P10635 whole entry): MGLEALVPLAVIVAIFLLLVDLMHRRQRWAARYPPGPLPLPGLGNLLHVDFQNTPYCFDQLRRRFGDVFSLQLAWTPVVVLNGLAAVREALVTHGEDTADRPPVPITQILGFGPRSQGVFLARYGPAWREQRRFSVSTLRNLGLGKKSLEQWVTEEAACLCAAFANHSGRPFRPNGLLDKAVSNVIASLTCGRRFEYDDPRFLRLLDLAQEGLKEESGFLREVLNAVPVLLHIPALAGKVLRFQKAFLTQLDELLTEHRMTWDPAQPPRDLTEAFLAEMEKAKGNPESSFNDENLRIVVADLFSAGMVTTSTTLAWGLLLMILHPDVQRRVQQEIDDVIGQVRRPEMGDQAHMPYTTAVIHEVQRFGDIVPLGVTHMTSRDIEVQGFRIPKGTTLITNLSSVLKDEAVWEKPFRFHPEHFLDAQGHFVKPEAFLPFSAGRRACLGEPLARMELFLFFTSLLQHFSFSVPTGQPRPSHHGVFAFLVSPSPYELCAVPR

[13] = system: U2932; test: Antiproliferative activity against human U2932 cells in culture medium with 10% lipid-reduced serum after 4 days in presence of palmitate by ATP-Glo assay; type: functional, cell-based; conditions: U2932, 96 h
[14] = system: OCI-Ly1; test: Antiproliferative activity against human OCI-LY1 cells in culture medium with 10% lipid-reduced serum after 4 days by ATP-Glo assay; type: functional, cell-based; conditions: OCI-Ly1, 96 h
[15] = biological target: Cytochrome P450 2C9 (Homo sapiens, UniProt P11712); test: Inhibition of human CYP2C9; type: ADME
Sequence of Cytochrome P450 2C9 (P11712 whole entry): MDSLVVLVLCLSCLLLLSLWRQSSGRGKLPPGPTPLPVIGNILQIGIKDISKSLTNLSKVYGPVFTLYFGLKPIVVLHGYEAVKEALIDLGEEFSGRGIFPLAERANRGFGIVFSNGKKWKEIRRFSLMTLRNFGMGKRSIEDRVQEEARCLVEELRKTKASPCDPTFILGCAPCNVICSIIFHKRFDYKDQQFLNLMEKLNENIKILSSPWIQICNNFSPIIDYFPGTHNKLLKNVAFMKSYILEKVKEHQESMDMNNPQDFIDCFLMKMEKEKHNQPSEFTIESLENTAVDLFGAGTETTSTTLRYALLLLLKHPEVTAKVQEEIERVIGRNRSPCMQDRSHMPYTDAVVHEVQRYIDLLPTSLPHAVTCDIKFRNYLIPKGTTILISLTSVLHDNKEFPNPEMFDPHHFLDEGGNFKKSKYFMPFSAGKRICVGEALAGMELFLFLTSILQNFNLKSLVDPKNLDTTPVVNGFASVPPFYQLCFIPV

[16] = system: K562; test: Antiproliferative activity against human K562 cells in culture medium with 10% lipid-reduced serum after 4 days in presence of palmitate by ATP-Glo assay; type: functional, cell-based; conditions: K562, 96 h
[17] = Protein binding in human plasma; type: ADME, cell-free; conditions: read-out: PPB (converted)
[18] = system: OCI-Ly1; test: Antiproliferative activity against human OCI-LY1 cells in culture medium with 10% lipid-reduced serum after 4 days in presence of palmitate by ATP-Glo assay; type: functional, cell-based; conditions: OCI-Ly1, 96 h
[19] = system: A2780; test: Antiproliferative activity against human A2780 cells in culture medium with 10% lipid-reduced serum after 4 days by MTT assay; type: functional, cell-based; conditions: A2780, 96 h
[20] = system: K562; test: Antiproliferative activity against human K562 cells in culture medium with 10% lipid-reduced serum after 4 days by ATP-Glo assay; type: functional, cell-based; conditions: K562, 96 h
[21] = system: HL-60; test: Antiproliferative activity against human HL60 cells in culture medium with 10% lipid-reduced serum after 4 days by ATP-Glo assay; type: functional, cell-based; conditions: HL-60, 96 h
[22] = system: HL-60; test: Antiproliferative activity against human HL60 cells in culture medium with 10% lipid-reduced serum after 4 days in presence of palmitate by ATP-Glo assay; type: functional, cell-based; conditions: HL-60, 96 h
[23] = biological target: Cytochrome P450 2C8 (Homo sapiens, UniProt P10632); test: Inhibition of human CYP2C8; type: ADME
Sequence of Cytochrome P450 2C8 (P10632 whole entry): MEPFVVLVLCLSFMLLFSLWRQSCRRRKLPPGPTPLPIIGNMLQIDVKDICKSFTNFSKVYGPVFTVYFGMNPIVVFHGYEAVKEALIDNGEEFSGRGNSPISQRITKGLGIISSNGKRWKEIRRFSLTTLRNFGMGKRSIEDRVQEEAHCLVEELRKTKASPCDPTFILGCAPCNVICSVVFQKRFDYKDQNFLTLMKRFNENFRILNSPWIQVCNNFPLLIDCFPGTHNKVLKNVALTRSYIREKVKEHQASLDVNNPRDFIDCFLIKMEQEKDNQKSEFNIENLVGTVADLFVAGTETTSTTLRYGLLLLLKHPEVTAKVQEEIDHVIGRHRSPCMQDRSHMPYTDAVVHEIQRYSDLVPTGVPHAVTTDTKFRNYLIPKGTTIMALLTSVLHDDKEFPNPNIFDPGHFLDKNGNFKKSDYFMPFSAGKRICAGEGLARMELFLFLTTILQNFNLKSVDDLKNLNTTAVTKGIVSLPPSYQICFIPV

[24] = system: U2932; test: Antiproliferative activity against human U2932 cells in culture medium with 10% lipid-reduced serum after 4 days by ATP-Glo assay; type: functional, cell-based; conditions: U2932, 96 h
[25] = biological target: Cytochrome P450 3A4 (Homo sapiens, UniProt P08684); test: Inhibition of human CYP3A4; type: ADME
[26] = system: MDA-MB-468; test: Antiproliferative activity against human MDA-MB-468 cells in culture medium with 10% lipid-reduced serum after 4 days in presence of palmitate by ATP-Glo assay; type: functional, cell-based; conditions: MDA-MB-468, 96 h
[27] = biological target: Cytochrome P450 1A2 (Homo sapiens, UniProt P05177); test: Inhibition human CYP1A2; type: ADME
Sequence of Cytochrome P450 1A2 (P05177 whole entry): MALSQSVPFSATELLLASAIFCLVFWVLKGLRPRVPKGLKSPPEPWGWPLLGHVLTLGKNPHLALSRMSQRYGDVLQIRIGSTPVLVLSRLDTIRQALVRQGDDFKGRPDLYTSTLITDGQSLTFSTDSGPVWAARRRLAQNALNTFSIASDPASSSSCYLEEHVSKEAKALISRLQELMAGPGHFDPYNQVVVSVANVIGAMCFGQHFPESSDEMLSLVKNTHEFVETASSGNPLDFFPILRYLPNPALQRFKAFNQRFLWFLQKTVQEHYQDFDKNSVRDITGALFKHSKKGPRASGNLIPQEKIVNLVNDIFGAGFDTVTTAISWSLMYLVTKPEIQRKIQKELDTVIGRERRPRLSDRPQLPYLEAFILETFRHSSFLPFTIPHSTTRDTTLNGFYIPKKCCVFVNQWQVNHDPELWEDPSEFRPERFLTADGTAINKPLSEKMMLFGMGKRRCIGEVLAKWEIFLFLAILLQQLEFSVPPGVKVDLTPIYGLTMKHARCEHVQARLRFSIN

[28] = Antiproliferative activity against human MM1R cells in culture medium with 10% lipid-reduced serum after 4 days by ATP-Glo assay; type: functional, cell-based; conditions: MM.1R, 96 h
[29] = AUC in mouse at 10 mg/kg, po; type: ADME, organism-based; conditions: in vivo
[30] = Cmax in mouse at 10 mg/kg, po; type: ADME, organism-based; design: dose 10 mg/kg, route oral; conditions: in vivo
[31] = system: BT-20; test: Antiproliferative activity against human BT20 cells in culture medium with 10% lipid-reduced serum after 4 days in presence of palmitate by ATP-Glo assay; type: functional, cell-based; conditions: BT-20, 96 h
[32] = Stability in mouse microsomes; type: ADME, Microsome
[33] = Half life in mouse at 10 mg/kg, po; type: ADME, organism-based; conditions: in vivo
[34] = system: LP-1; test: Antiproliferative activity against human LP-1 cells in culture medium with 10% lipid-reduced serum after 4 days in presence of palmitate by ATP-Glo assay; type: functional, cell-based; conditions: LP-1, 96 h
[35] = Permeability in human Caco2 cells; type: ADME, cell-based; conditions: Caco-2, read-out: permeability
[36] = system: A549; test: Antiproliferative activity against human A549 cells in culture medium with 10% lipid-reduced serum after 4 days in presence of palmitate by ATP-Glo assay; type: functional, cell-based; conditions: A549, 96 h
[37] = Oral bioavailability in mouse at 10 mg/kg; type: ADME, organism-based; conditions: in vivo
[38] = Protein binding in mouse plasma; type: ADME, cell-free; conditions: read-out: PPB (converted)
[39] = Antiproliferative activity against human LL cells in culture medium with 10% lipid-reduced serum after 4 days by ATP-Glo assay; type: functional, cell-based; conditions: 96 h
[40] = system: NCI-H460; test: Antiproliferative activity against human NCI-H460 cells in culture medium with 10% lipid-reduced serum after 4 days by ATP-Glo assay; type: functional, cell-based; conditions: NCI-H460, 96 h
[41] = system: NCI-H929; test: Antiproliferative activity against human NCI-H929 cells in culture medium with 10% lipid-reduced serum after 4 days in presence of palmitate by ATP-Glo assay; type: functional, cell-based; conditions: NCI-H929, 96 h
[42] = system: MV4-11; test: Antiproliferative activity against human MV4-11 cells in culture medium with 10% lipid-reduced serum after 4 days by ATP-Glo assay; type: functional, cell-based; conditions: MV4-11, 96 h
[43] = Antiproliferative activity against human LL cells in culture medium with 10% lipid-reduced serum after 4 days in presence of palmitate by ATP-Glo assay; type: functional, cell-based; conditions: 96 h
[44] = system: MDA-MB-468; test: Antiproliferative activity against human MDA-MB-468 cells in culture medium with 10% lipid-reduced serum after 4 days by ATP-Glo assay; type: functional, cell-based; conditions: MDA-MB-468, 96 h
[45] = system: A549; test: Antiproliferative activity against human A549 cells in culture medium with 10% lipid-reduced serum after 4 days by ATP-Glo assay; type: functional, cell-based; conditions: A549, 96 h
[46] = system: NCI-H929; test: Antiproliferative activity against human NCI-H929 cells in culture medium with 10% lipid-reduced serum after 4 days by ATP-Glo assay; type: functional, cell-based; conditions: NCI-H929, 96 h
[47] = biological target: Fatty acid synthase (Homo sapiens, UniProt P49327)
Sequence of Fatty acid synthase (P49327 whole entry): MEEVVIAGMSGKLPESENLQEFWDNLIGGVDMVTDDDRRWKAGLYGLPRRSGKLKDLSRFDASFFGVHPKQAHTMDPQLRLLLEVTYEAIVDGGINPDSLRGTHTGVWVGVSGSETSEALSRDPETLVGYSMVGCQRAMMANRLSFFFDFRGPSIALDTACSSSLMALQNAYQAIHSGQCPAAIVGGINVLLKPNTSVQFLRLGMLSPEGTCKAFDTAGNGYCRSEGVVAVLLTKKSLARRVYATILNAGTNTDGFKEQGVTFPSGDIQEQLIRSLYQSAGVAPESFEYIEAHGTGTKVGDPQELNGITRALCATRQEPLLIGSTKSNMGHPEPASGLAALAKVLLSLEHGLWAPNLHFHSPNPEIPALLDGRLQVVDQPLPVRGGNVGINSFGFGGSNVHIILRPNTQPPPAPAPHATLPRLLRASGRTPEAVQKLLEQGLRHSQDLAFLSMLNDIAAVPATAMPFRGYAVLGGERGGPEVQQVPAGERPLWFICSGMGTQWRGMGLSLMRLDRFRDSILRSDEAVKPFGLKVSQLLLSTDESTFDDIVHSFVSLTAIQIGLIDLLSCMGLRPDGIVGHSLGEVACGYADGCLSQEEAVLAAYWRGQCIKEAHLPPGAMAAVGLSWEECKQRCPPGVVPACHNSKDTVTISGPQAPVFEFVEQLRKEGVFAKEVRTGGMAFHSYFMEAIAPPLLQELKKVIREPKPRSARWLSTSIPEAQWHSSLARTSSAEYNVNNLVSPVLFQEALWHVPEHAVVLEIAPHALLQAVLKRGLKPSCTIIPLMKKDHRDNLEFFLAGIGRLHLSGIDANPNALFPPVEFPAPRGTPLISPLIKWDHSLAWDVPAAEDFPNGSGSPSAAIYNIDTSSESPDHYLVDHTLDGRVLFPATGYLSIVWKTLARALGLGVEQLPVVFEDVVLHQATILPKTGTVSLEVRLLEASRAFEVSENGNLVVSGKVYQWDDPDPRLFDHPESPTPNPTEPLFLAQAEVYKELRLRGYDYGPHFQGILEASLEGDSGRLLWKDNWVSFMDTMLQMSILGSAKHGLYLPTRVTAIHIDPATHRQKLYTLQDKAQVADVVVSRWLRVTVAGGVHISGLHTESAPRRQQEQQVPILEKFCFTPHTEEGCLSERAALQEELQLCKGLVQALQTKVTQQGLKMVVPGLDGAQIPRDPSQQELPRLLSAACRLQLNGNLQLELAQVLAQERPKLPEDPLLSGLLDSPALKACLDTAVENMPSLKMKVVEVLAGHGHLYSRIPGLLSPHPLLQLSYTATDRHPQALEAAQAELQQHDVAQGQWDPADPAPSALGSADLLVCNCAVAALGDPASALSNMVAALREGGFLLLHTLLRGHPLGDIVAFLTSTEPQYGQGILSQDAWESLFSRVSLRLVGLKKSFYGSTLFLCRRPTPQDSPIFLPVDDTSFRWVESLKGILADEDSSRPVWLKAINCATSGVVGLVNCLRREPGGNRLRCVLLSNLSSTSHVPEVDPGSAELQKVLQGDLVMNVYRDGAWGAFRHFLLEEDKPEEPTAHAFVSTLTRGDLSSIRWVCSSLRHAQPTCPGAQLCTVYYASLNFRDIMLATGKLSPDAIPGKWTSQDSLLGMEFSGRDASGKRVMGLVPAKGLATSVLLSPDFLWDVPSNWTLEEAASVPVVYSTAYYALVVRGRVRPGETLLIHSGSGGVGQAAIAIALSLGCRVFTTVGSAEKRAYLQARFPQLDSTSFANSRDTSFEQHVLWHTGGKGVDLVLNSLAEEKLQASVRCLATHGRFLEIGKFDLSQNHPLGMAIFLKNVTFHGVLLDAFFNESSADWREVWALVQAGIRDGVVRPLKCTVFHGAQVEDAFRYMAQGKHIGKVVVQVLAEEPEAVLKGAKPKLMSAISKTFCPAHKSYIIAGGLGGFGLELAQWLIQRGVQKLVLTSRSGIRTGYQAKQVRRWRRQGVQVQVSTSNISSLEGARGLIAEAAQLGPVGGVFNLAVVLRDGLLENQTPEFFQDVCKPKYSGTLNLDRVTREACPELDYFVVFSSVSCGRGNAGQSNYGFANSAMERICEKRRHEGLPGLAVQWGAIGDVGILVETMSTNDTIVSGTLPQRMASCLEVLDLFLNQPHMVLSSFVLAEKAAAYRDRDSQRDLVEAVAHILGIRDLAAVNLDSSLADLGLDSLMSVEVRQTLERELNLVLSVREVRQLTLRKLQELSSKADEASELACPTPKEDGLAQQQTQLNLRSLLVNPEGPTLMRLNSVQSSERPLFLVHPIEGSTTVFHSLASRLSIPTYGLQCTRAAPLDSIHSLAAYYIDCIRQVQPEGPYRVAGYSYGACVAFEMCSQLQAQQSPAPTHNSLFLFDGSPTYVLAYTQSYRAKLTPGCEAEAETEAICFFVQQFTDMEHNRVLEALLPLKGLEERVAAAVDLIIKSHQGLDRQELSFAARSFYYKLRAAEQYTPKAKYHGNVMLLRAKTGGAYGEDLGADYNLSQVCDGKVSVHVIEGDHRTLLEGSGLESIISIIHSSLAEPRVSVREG
Description: Inhibition of human full length FASN using [3H]-acetyl-CoA/malonyl-CoA as substrate after 60 mins in presence of NADPH by scintillation proximity assay

Cn1cc(-c2ccc(-c3ccc(C4=NC5(CC5)C(=O)N4C[C@@H]4CCN(C(=O)C5CC5)C4)cc3)cc2)cn1
EC50 [1]: > 10000 nM
EC50 [2]: > 10000 nM
EC50 [3]: 25 nM
EC50 [4]: > 10000 nM
EC50 [5]: 66 nM
IC50 [6]: > 10000 nM
EC50 [7]: 7940 nM
EC50 [8]: > 10000 nM
Stability [9]: Stable
EC50 [10]: > 10000 nM
Tmax [11]: 2 h
IC50 [12]: > 10000 nM
EC50 [13]: 3020 nM
EC50 [14]: 55 nM
IC50 [15]: 7900 nM
EC50 [16]: 9330 nM
fraction unbound [17]: 0.059
EC50 [18]: 6760 nM
EC50 [19]: 13 nM
EC50 [20]: 110 nM
EC50 [21]: 120 nM
EC50 [22]: 6310 nM
IC50 [23]: > 10000 nM
EC50 [24]: 190 nM
IC50 [25]: > 10000 nM
EC50 [26]: > 10000 nM
IC50 [27]: > 10000 nM
EC50 [28]: 170 nM
AUC [29]: 11100 ng·h/mL
Cmax [30]: 2030 ng/mL
EC50 [31]: > 10000 nM
Stability [32]: Stable
half-life [33]: 2.5 h
EC50 [34]: > 10000 nM
Papp [35]: 7.1 ×10⁻⁶ cm/s
EC50 [36]: > 10000 nM
bioavailability [37]: 60.6%
fraction unbound [38]: 0.034
EC50 [39]: 590 nM
EC50 [40]: 36 nM
EC50 [41]: > 10000 nM
EC50 [42]: 59 nM
EC50 [43]: 9330 nM
EC50 [44]: 26 nM
EC50 [45]: 20 nM
EC50 [46]: 3720 nM

O=C([C@H]1CCCO1)N1CC[C@@H](CN2C(=O)C3(CC3)N=C2c2ccc(-c3ccc4occc4c3)cc2)C1
IC50 [47]: 300 nM

O=C(N1CC[C@@H](CN2C(=O)C3(CC3)N=C2c2ccc(-c3ccc4occc4c3)cc2)C1)C1(O)CC1
IC50 [47]: 36 nM

O=C(CC(F)(F)F)N1CC[C@@H](CN2C(=O)C3(CC3)N=C2c2ccc(-c3ccc4occc4c3)cc2)C1
IC50 [47]: 170 nM

O=C(C1CC1)N1CC[C@@H](CN2C(=O)C3(CC3)N=C2c2ccc(-c3ccc(-c4ccncc4)cc3)cc2)C1
IC50 [47]: 23 nM

Cn1ccc(C(=O)N2CC[C@@H](CN3C(=O)C4(CC4)N=C3c3ccc(-c4ccc5occc5c4)cc3)C2)n1
IC50 [47]: 450 nM

CC1(C(=O)N2CC[C@@H](CN3C(=O)C4(CC4)N=C3c3ccc(-c4ccc5occc5c4)cc3)C2)CC1
IC50 [47]: 28 nM

Cn1ncc2cc(-c3cnc(C4=NC5(CC5)C(=O)N4C[C@@H]4CCN(C(=O)C5CC5)C4)nc3)ccc21
IC50 [47]: 33100 nM

O=C([C@@H]1CCCO1)N1CC[C@@H](CN2C(=O)C3(CC3)N=C2c2ccc(-c3ccc4occc4c3)cc2)C1
IC50 [47]: 79 nM

N#CC1(C(=O)N2CC[C@@H](CN3C(=O)C4(CC4)N=C3c3ccc(-c4ccc5occc5c4)cc3)C2)CC1
IC50 [47]: 590 nM

— ChEMBL document CHEMBL4118196, “Design and synthesis of a series of bioavailable fatty acid synthase (FASN) KR domain inhibitors for cancer therapy” (Bioorg Med Chem Lett, 2018)
